Tested on: female NMRI mice
Experiment: Anorectic action: cumulative milk consumption after 24 h removal of feed
Type: in vivo
Conditions: 30 mg/kg i.p.
Protocol: The anorectic action was tested on female NMRI mice. After removal of feed for 24 hours, the preparation to be tested was administered intraperitoneally (i.p.) or by gavage (po). The animals were housed singly and, with free access to drinking water, they were offered evaporated milk 30 minutes after administration of the preparation. The consumption of evaporated milk was determined and the general behavior of the animals was monitored every half an hour for 7 hours. The measured milk consumption was compared to that of vehicle-treated control animals.

CC1(O)c2ccc(Cl)cc2CC1(F)S(C)(=O)=O (centres unmarked) [Example 1, 5-Chloro-2-fluoro-2-methanesulfonyl-1-methyl-indan-1-ol]
Reduction in cumulative milk consumption as % of the control (compared with control animals): 25% | cumulative milk consumption by treated animals (feed removed for 24 h, evaporated milk offered 30 min after administration, monitored for 7 hours): 4/2.88 ml
